The test system of one assay is Notch signalling. Description: Notch reporter assay (12xCSL firefly luciferase / renilla luciferase, HEK293T Notch1ΔE reporter cell line clone #A1-11). Particulars: for IC50 / activity at 10 µM / activity at 25 µM / activity: Homo sapiens, HEK-293T; for activity: 1,25µM; for AUC Notch: area under the 14-point dose-response curve, replicates averaged; for Bottom (Emax): Emax indicated independent from assay constraints, in % (unit assumed). In kind it is cell-based. On the set-up: AUC Notch: scale not given here. From the text:
To identify novel Notch inhibitors in an unbiased manner, we generated a novel Notch reporter construct, which records the level of Notch signalling immediately downstream of receptor activation rather than further downstream in the signalling cascade, for example at the level of Hes and Hey proteins (Fig. 1B). […] The reporter construct carries piggy-bac sequences at both ends of the promoter-reporter cassette as well as cSH4 insulator elements to reduce transcriptional noise[21] and was transfected into HEK293T cells. To achieve a robust level of Notch receptor activity in the HEK293T reporter cell line and to confine the search for inhibitors to compounds affecting the receptor function and eliminating the need for ligand activation, a truncated ligand-independent version of the Notch1 receptor, mimicking an S2-cleaved Notch1 receptor (Notch1ΔE) and spontaneously activated by S3-cleavage[22] (Fig. 1C) was introduced into the cell line carrying the reporter construct (Fig. 1D). In addition, an HSV-TK-renilla luciferase plasmid was introduced into the cell line as an internal control for normalisation of the reporter expression (Fig. 1D).
A de novo Notch reporter construct, composed of six dimeric CSL binding sites linked to a basic b-globin promoter and followed by a firefly luciferase gene and a PEST degradation domain was synthesised (GeneArt). The construct was stably introduced into HEK293T cells, and zeocin (0.1 mg/ml) or Puromycin (0.05 mg/ml (ThermoFisher, cat #R25001, #A1113803) were used as selection markers. A clonal cell line (clone #A1) with robust renilla expression and enhanced firefly luciferase expression upon transient transfection of Notch1 ICD or Notch1ΔE constructs was selected, and a UB6 promoter-Notch1DE construct was stably introduced into this cell line using Blasticidin (0.1 mg/ml; ThermoFisher, cat #A1113903) as a selection marker. Stable cell lines were generated by serial dilution and only clonal colonies were selected for further evaluation. To measure luciferase reporter activity, cells were washed in cold PBS, detached, and collected in pre-warmed cell culture medium and centrifugated for five min at 200xg. The cell pellet was resuspended in medium, cells were counted, and 4,000 cells were seeded in each well of a white 384 well plate (Corning #3670) in 20 µl medium containing either DMSO or the GSI DAPT (N-[N-(3,5-Difluorophenacetyl)-L-alanyl]-S-phenylglycine t-butyl ester, Sigma-Aldrich, cat #565784-M) and incubated for 24 h. The efficacy of the reporter gene system was determined by monitoring the level of luciferase activation in the absence or presence of different amounts of DAPT in several cell clones. Luciferase activity was assessed using the dual-GLO luciferase detection kit from Promega (cat # E2920), following the manufacturer’s instructions. A minimum of two technical replicates were measured per clone using a SpectraMaxi3 plate reader (Molecular Devices). Reporter activity of different clones and in response to DAPT was assessed by normalising firefly (Notch activity) to renilla luciferase signals. Normalised signals of individual clones cultivated in DMSO were then compared to corresponding signals generated with DAPT-treated cells. The cell clone with the strongest signal to control ratio (DMSO to DAPT) was then selected for further exploration (clone #A1-11).
37,966 compounds were spotted by the compound center at SciLifeLab (https://www.scilifelab.se/) on a total of 120 plates (Greiner #781080) at a fixed concentration of 10 µM and the screening process spanned five consecutive sessions. The layout of each plate contained one column for DMSO and one for DAPT controls to determine the quality and reliability of the data. DAPT controls were spotted at 10 µM and DMSO was spotted in an equimolar volume. In addition, plates spotted with only DMSO were utilized to investigate the impact of plate effects before and after each session. […]

Another assay concerns the target γ-secretase complex (Homo sapiens, UniProt P49768). Description: APP-C99 counter assay (GSI reporter assay). Details: AUC APP: scale not given here. Particulars: for Hill-slope: 14p APP assay DR; for remaining activity at 10 µM / remaining activity at 25 µM / remaining activity at […]: 24 h, APP-C99 counter assay, read-out: 3p-DR in % of DMSO counter; for remaining activity at […]: 1,25µM; for AUC APP: area under the 14-point dose-response curve, replicates averaged. The class given is cell-based. How it is done:
To this end, we used a previously established reporter gene-based GSI assay (APP-C99) (Fig. 3A), which measures γ-secretase activity through cleavage of amyloid precursor protein (APP), another protein processed by the γ-secretase complex[24]
Plasmids for APP and luciferase are described in[24] and the renilla plasmid described above generated for this project was used to normalize firefly values. 24 h post transfection cells were seeded on compound plates and cells were cultivated for 24 h before luciferase signals were read, as described.
Two-fold concentrations of compounds were diluted in 10 µl cell culture medium and brought to one-fold by seeding 10 µl containing 4000 cells of the respective cell type on each well of a 384-well plate, as described above. Analogous to the previous assays, all plates contained one DMSO and DAPT control column with the Notch reporter cell line (#A1-11) and a DMSO only and Notch inhibitor control plate was read before the measuring the screening plates. In addition, DAPT and DMSO were spotted in a dose response fashion, and a minimum of four replicates were read. Dose-responses of compounds were recorded in triplicates for each concentration reading out the dual luciferase reporters, as described above. Dose response assays were read together in one session. To measure compound effects, the different assays dose–response curves were fitted using the log(inhibitor) vs. response – Variable slope (model: Y = Bottom + (Top–Bottom)/(1 + 10^((LogIC50-X)*HillSlope)) equation.
A DMSO plate was read before measuring luciferase activity of compound spotted plates. APP firefly luciferase reporter assays were read with a signal integration time of 0.1 s, instead of 0.5 s used for the Notch reporter to reduce signal overlap between wells. […] The area-under-the-curve (AUC) was calculated on dose–response curves using Graphpad Prism.

The mark [1] stands for this setting: 14p Notch assay DR, bottom constrained to Emax of positive control DAPT, read-out: approximated IC50.
Where [2] appears, read: 14p Notch assay DR, bottom constrained to Emax of positive control RO4929097, read-out: approximated IC50.
[3] abbreviates: 14p Notch assay DR, log10 value, bottom constrained to Emax of positive control DAPT, read-out: approximated LogIC50 (converted).
The mark [4] stands for this setting: 14p Notch assay DR, log10 value, bottom constrained to Emax of positive control RO4929097, read-out: approximated LogIC50 (converted).
[5] abbreviates: 10 µM, primary screen, 24 h, unit from Fig. 2 legend, read-out: Primary screen at 10 µM (Notch reporter signal).
Where [6] appears, read: 10 µM, three-dose confirmation screen, unit from Fig. 2 legend, read-out: Hit confirmation at 10 µM (Notch reporter signal).
Setting [7] is: 10µM, 3-point DR confirmation screen, Notch reporter assay, read-out: inhibitor ratio in % of DMSO in 3 point DR.
Setting [8] is: 10 µM, sheet conf vs counter 10 µM, same values as 3-point DR confirmation screen, read-out: Confirmation screen.
Where [9] appears, read: 25µM, 3-point DR confirmation screen, Notch reporter assay, read-out: inhibitor ratio in % of DMSO in 3 point DR.
[10] abbreviates: 25 µM, Notch reporter 3-point dose-confirmation assay, sheet "conf vs counter 25 µM", read-out: Confirmation screen.
Where [11] appears, read: 3-point DR confirmation screen, Notch reporter assay, read-out: inhibitor ratio in % of DMSO in 3 point DR.
Where [12] appears, read: bottom constrained to Emax of positive control LY-411575.
Setting [13] is: 14-point dose-response, Fig. 4, read-out: approximated IC50, Notch reporter assay.

This is an account of results in article PMC13242511, “Disrupting Notch signalling by a small molecule inhibiting dihydroorotate dehydrogenase activity” (Scientific Reports, 2026).

Where two headings read alike, the source gives them in different places.

Turning to `COc1cccc(CNc2ccc(N3CCOCC3)cc2)c1OCc1ccccc1F` [CBK074406], the IC50 was 3.5 µM with Notch signalling (14p Notch assay DR, averaged when replicate measurements were available, read-out: averaged IC50s); 3.5 µM in the assay with Notch signalling (setting [1]); 3.5 µM in the assay with Notch signalling (setting [2]); 3.16 µM in the assay on Notch signalling (setting [3]); 3.16 µM in the assay on Notch signalling (setting [4]). For the same compound, the activity at 10 µM in the assay with Notch signalling (setting [5]) turned out to be 56.4%; in the assay on Notch signalling (setting [6]), 68%; in the assay on Notch signalling (setting [7]), 68%; in the assay with Notch signalling (setting [8]), 68%. Moreover, the activity at 25 µM in the assay with Notch signalling (setting [9]) and with Notch signalling (setting [10]) was 66.7% each time. In the assay with Notch signalling (setting [11]), the activity is 98.6%. Moreover, the “AUC Notch” value in the assay with Notch signalling was 518.0. Further, the Hill-slope at γ-secretase complex (bottom constrained to Emax of positive control CB-103) came out at 0.00965; on γ-secretase complex (setting [12]), 0.0527. Besides, on γ-secretase complex, the remaining activity at 10 µM is 153%. For the same compound, the remaining activity at 25 µM on γ-secretase complex came out at 158%. In addition, on γ-secretase complex, the remaining activity at […] worked out at 102%. Besides, the “AUC APP” value on γ-secretase complex is recorded as 758.8.

For the compound `Cc1ccc(-c2noc([C@@H]3Cc4[nH]cnc4CN3C(=O)CCC(=O)O)n2)cc1` [CBK288958], in the assay with Notch signalling (14p Notch assay DR), the “Bottom (Emax)” value is 57.4. The values for the IC50 with Notch signalling (setting [1]) and in the assay with Notch signalling (setting [3]) were 3.2 µM and 3.16 µM, respectively. In addition, the activity at 10 µM was found to be 50.2% in the assay on Notch signalling (setting [5]), 49.6% with Notch signalling (setting [6]), 49.6% with Notch signalling (setting [7]) and 49.6% in the assay with Notch signalling (setting [8]). Besides, the activity at 25 µM in the assay with Notch signalling (setting [9]) and with Notch signalling (setting [10]) was 32.2% each time. In addition, the activity in the assay with Notch signalling (setting [11]) turned out to be 87.5%. In addition, the “AUC Notch” value in the assay with Notch signalling turned out to be 600.0. The compound further came in with a Hill-slope at γ-secretase complex (setting [12]) of -0.00263. Further, the remaining activity at 10 µM on γ-secretase complex is 115%. In addition, the remaining activity at 25 µM on γ-secretase complex is 129%. Moreover, on γ-secretase complex, the remaining activity at […] came to 119%. For the same compound, the “AUC APP” value on γ-secretase complex was found to be 662.9.

Take `CCc1c(C)sc(NC(=O)C2CCC2)c1C(=O)NCc1cccnc1` [CBK307414]: the IC50 is 7.5 µM in the assay with Notch signalling (setting [13]), 7.4 µM in the assay with Notch signalling (setting [2]) and 7.94 µM in the assay with Notch signalling (setting [4]). In addition, the “AUC Notch” value in the assay on Notch signalling worked out at 311.0. At γ-secretase complex (setting [12]), this compound came in with a Hill-slope of 0.0127. Besides, on γ-secretase complex, the “AUC APP” value is given as 416.6.

For the compound `CC(=O)N1CCc2sccc2C1c1ccccc1NCc1ccoc1` (stereo not drawn) [CBK286432], the activity at 10 µM in the assay with Notch signalling (setting [5]) was 37.6%; in the assay with Notch signalling (setting [6]) it was 57.2%; in the assay with Notch signalling (setting [7]), 57.2%; in the assay on Notch signalling (setting [8]), 57.2%. Further, the activity at 25 µM in the assay on Notch signalling (setting [9]) and with Notch signalling (setting [10]) was 45.5% in each case. In the assay with Notch signalling (setting [11]), the activity turned out to be 88.7%. The Hill-slope at γ-secretase complex (setting [12]) was -0.0118. In addition, the remaining activity at 10 µM at γ-secretase complex worked out at 152%. Moreover, the remaining activity at 25 µM on γ-secretase complex worked out at 184%. For the same compound, on γ-secretase complex, the remaining activity at […] worked out at 147%.

Regarding `NC(=O)c1c(NC(=O)NC2CCCCC2)sc2c1CCCC2` [CBK431895], the “Bottom (Emax)” value with Notch signalling (14p Notch assay DR) is reported as 87.8. In addition, the IC50 in the assay on Notch signalling (setting [13]) turned out to be 33.5 µM. Further, in the assay on Notch signalling, the “AUC Notch” value was 341.0. This compound also yielded a Hill-slope at γ-secretase complex (setting [12]) of -0.00462. For the same compound, the “AUC APP” value on γ-secretase complex was determined as 411.0.
